The text below walks through data of patent publication US6613762B2, “Gambogic acid, analogs and derivatives as activators of caspases and inducers of apoptosis” (Cytovia, Inc., priority 1999, dated 2003).

Each structure is given as a SMILES string.

The test system of data set [1] is HeLa cells. Particulars: reported by Asano et al., Phytochemistry 41:815-820 (1996); cited from earlier work.
The subject of data set [2] is ZR-75-1 cells. As to the kind of experiment: Inhibition of cell proliferation (GI50) and cell death (LC50), ZR-75-1. To be noted: ZR-75-1, 48 h; read-out: GI50 (dose for 50% inhibition of cell proliferation). It is filed as cell-based. How it is done:
(§1) T47D, ZR-75-1, PC-3, human prostate cancer cell line DU-145, human non-small cell lung cancer cell line A-549, human small cell lung cancer cell line SHP-77, HL-60 and MRC-5 cells were grown and harvested as in Example 90. […] The samples were mixed by agitation and incubated at 37° C. for 2-4 h in a 5% CO2-95% humidity incubator. […] This determines the possible background absorbance of the test compounds. No absorbance for gambogic acid or its analogs or derivatives was found at 490 nm. After the 2-4 h incubation, the samples were read for absorbance as above (ATest).
(§2) Baseline for GI50 (dose for 50% inhibition of cell proliferation) and LC50 (dose for 50% cell death) of initial cell numbers was determined by adding an aliquot of 90 μl of cells or 90 μl of media, respectively, to wells of a 96-well microtiter plate containing 10 μl of a 10% DMSO in RPMI-1640 media solution. […] The samples were mixed by agitation and incubated at 37° C. for 2-4 h in a 5% CO2-95% humidity incubator. Absorbance was read as above, (AT=0) defining absorbance for initial cell number used as baseline in GI50 determinations and (Amin) defining absorbance for media alone used as baseline in LC50 determinations.
(§3) GI50 (dose for 50% inhibition of cell proliferation)
(§4) LC50 (dose for 50% cell death)
(§5) 50=100×[(ATest−Amin)/(AT=0−Amin)]

The test system of data set [3] is MRC-5 cells. As to the kind of experiment: Inhibition of cell proliferation (GI50) and cell death (LC50), MRC-5. Particulars: MRC-5, 48 h. In kind it is cell-based. How it is done: as §1, §2, §3, §4, §5
Data set [4] concerns poly(ADP)ribose polymerase (PARP) cleavage, Jurkat cells. As to the kind of experiment: PARP cleavage western blot, Jurkat cells. Particulars: 2.5 μM, 2 h (FIG. 5A). In kind it is cell-based, human. How it is done: (§6) Cleavage of the enzyme poly(ADP)ribose polymerase (PARP) by caspase-3 and related proteases is considered to be one of the molecular hallmarks of caspase-mediated apoptosis. Therefore, the ability of gambogic acid to induce PARP cleavage in four different human tumor cell lines (Jurkat cells, HL-60 cells, T47D cells and PC3 cells) was determined.
(§7) Cells were cultured in complete growth medium containing 10% FBS and treated with gambogic acid at concentrations of 2.5 μM or 5 μM for 2 to 4 h. Control cultures were treated with a drug vehicle (DMSO), or the well-characterized apoptosis inducer, staurosporine. At the end of the apoptosis induction period, the cells were harvested, washed once with PBS, quick-frozen on dry ice, and stored at −80° C. The cells were then lysed in a standard immunoblotting lysis buffer and samples of the lysates were electrophoresed on 4% to 20% gradient polyacrylamide gels. The proteins in the gels were then transferred to PVDF membranes and probed with a commercially-available rabbit polyclonal antibody to PARP.
In general terms: In western blotting, separated proteins are transferred to a membrane and probed.

For data set [5], the system named is PC-3 cells. As to the kind of experiment: Inhibition of cell proliferation (GI50) and cell death (LC50), PC-3. In kind it is cell-based. To be noted: PC-3, 48 h; read-out: GI50 (dose for 50% inhibition of cell proliferation). How it is done: as §1, §2, §3, §4, §5
Data set [6] has as its system poly(ADP)ribose polymerase (PARP) cleavage, T47D cells. The experiment in a line: PARP cleavage western blot, T47D cells. It is filed as cell-based, human. On the procedure:
as §6, §7

The test system of data set [7] is caspase activity, PC-3 cells. The experiment in a line: Caspase induction and its inhibition by caspase inhibitor (Example 97), PC-3. In kind it is cell-based, human. The arrangement: key to Inhibition of caspase activity by Inhibitor: The caspase activity detected was inhibited by the caspase inhibitor (+). On the procedure:
(§8) T47D, ZR-75, PC3, SHP-77 and A-549 cells were maintained and harvested as described in Example 90. Cells were added to 96-well plates as described in Example 90. The cells were treated with 10 μM gambogic acid, in the presence and in the absence of 10 μM caspase inhibitor cbz-Val-Asp-fmk (Cytovia, Inc.; WO99/18781). The plate was incubated up to 24 h at 37° C in a 5% CO2-95% humidity incubator. Caspase activity was determined by addition of a fluorogenic substrate as described in Example 90.
(§9) Gambogic acid induced caspase activity in a ratio of greater than 2.5 (+) above untreated cell levels in all the tested cancer cell lines (Table IV). The caspase activity detected was inhibited by the caspase inhibitor (+), confirming that the fluorescent signal was due to caspase activity.

The subject of data set [8] is poly(ADP)ribose polymerase (PARP) cleavage, PC3 cells. The experiment in a line: PARP cleavage western blot, PC3 cells. In kind it is cell-based, human. To be noted: 5 μM, 4 h (FIG. 5D). On the procedure:
as §6, §7

The test system of data set [9] is caspase activity, A-549 cells. The experiment in a line: Caspase induction and its inhibition by caspase inhibitor (Example 97), A-549. It is filed as cell-based, human. The arrangement: key to Inhibition of caspase activity by Inhibitor: The caspase activity detected was inhibited by the caspase inhibitor (+). On the procedure:
as §8, §9

Data set [10] relates to caspase activity, ZR-75 cells. The experiment in a line: Caspase induction and its inhibition by caspase inhibitor (Example 97), ZR-75. In kind it is cell-based, human. Further details: key to Inhibition of caspase activity by Inhibitor: The caspase activity detected was inhibited by the caspase inhibitor (+). How it is done: as §8, §9
The subject of data set [11] is caspase activity, T47D cells. The experiment in a line: Caspase induction and its inhibition by caspase inhibitor (Example 97), T47D. Further details: key to Inhibition of caspase activity by Inhibitor: The caspase activity detected was inhibited by the caspase inhibitor (+). It is filed as cell-based, human. How it is done: as §8, §9
For data set [12], the system named is human small cell lung cancer cell line SHP-77. The experiment in a line: Inhibition of cell proliferation (GI50) and cell death (LC50), SHP-77. Particulars: SHP-77, 48 h. It is filed as cell-based. How it is done: as §1, §2, §3, §4, §5
The subject of data set [13] is T47D breast cancer cells. As to the kind of experiment: Nuclear fragmentation in T47D breast cancer cells (Syto16 stain). To be noted: 10 μM, 24 h (FIG. 2B). It is filed as cell-based, human. On the procedure:
T47D cells were grown and plated as described in Example 90. The cells were treated with 10 μM of gambogic acid and the plate was incubated for up to 24 h at 37° C. in a 5% CO2-95% humidity incubator. At 24 h, the cells were incubated with a live cell nucleic acid stain, Syto16 (Molecular Probes) which stains DNA. After 2 washes with PBS, cells were examined under a fluorescence microscope. […] Nuclear fragmentation is a clear indicator of cellular apoptosis.

For data set [14], the system named is human prostate cancer cell line DU-145. As to the kind of experiment: Inhibition of cell proliferation (GI50) and cell death (LC50), DU-145. It is filed as cell-based. To be noted: DU-145, 48 h; read-out: GI50 (dose for 50% inhibition of cell proliferation). On the procedure: as §1, §2, §3, §4, §5
Setting [15] is: read-out: GI50 (dose for 50% inhibition of cell proliferation).
The mark [16] stands for this setting: read-out: LC50 (dose for 50% cell death).

On to `CC(C)=CCC[C@]1(C)C=Cc2c(O)c3c(c(CC=C(C)C)c2O1)O[C@]12C(=C[C@@H]4C[C@H]1C(C)(C)O[C@@]2(C/C=C(/C)C(=O)O)C4=O)C3=O` [Example 1, Gambogic Acid], for which the “Cytotoxicity to HeLa cells” value in [1] is “cytotoxic”. For the same compound, the GI50 worked out at 400 nM in data set [2]; 400 nM in [3] (setting [15]); 500 nM in [5]; 500 nM in data set [12] (setting [15]); 500 nM in data set [14]. For the same compound, the CC50 in [3] (setting [16]) and in data set [12] (setting [16]) was 500 nM each time. For the same compound, the PARP cleavage entry in [4] is listed as “almost complete PARP cleavage”; in [6] (2.5 μM and 5 μM, 4 h (FIG. 5C)), “almost complete PARP cleavage”; in [6] (2.5 μM, 2 h (FIG. 5C)), “moderate induction of PARP cleavage”; in data set [6] (5 μM, 2 h (FIG. 5C)) it was “almost complete PARP cleavage”; in [8] it was “a moderate amount of PARP cleavage product”. Besides, the “Inhibition of caspase activity by Inhibitor” value is given as “+” in data set [7] (PC-3, 10 μM gambogic acid with 10 μM caspase inhibitor cbz-Val-Asp-fmk); “+” in [9] (A-549, 10 μM gambogic acid with 10 μM caspase inhibitor cbz-Val-Asp-fmk); “+” in [10] (ZR-75, 10 μM gambogic acid with 10 μM caspase inhibitor cbz-Val-Asp-fmk); “+” in data set [11] (10 μM gambogic acid with 10 μM caspase inhibitor cbz-Val-Asp-fmk). In addition, the Caspase activity result is given as “+ (Gambogic acid induced caspase activity in a ratio of greater than 2.5 (+) above untreated cell levels)” in data set [7] (PC-3, 10 μM gambogic acid, up to 24 h); “+ (Gambogic acid induced caspase activity in a ratio of greater than 2.5 (+) above untreated cell levels)” in [9] (A-549, 10 μM gambogic acid, up to 24 h); “+ (Gambogic acid induced caspase activity in a ratio of greater than 2.5 (+) above untreated cell levels)” in data set [10] (ZR-75, 10 μM gambogic acid, up to 24 h); “+ (Gambogic acid induced caspase activity in a ratio of greater than 2.5 (+) above untreated cell levels)” in data set [11] (10 μM gambogic acid, up to 24 h). Further, the “Nuclear fragmentation (Syto16 nuclear staining)” value in data set [13] was “condensed and fragmented nuclei in a large population of the cells”.
